According to ChEMBL document CHEMBL1201862, “PubChem BioAssay data set” (2004):
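Five concentrations, 48 hours, 96-well plates. At the GI50, growth is halved.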 Active and inactive are the calls of the source. Cut-off read from the data, not from the text of the source: active = GI50 up to about 1.1 µM and inactive = higher.

Key:
Assay in all cases: NCI-60 cell line screen, 48 h
SK-OV-3 = test system: SK-OV-3
HOP-92 = test system: HOP-92
PC-3 = test system: PC-3
OVCAR-5 = test system: OVCAR-5
NCI-H23 = test system: NCI-H23
HCT-116 = test system: HCT-116
DU-145 = test system: DU-145
TK-10 = test system: TK-10
SK-MEL-5 = test system: SK-MEL-5
SF-539 = test system: SF-539
T47D = test system: T47D
CCRF-CEM = test system: CCRF-CEM
HL-60 = test system: HL-60
SK-MEL-28 = test system: SK-MEL-28
SK-MEL-2 = test system: SK-MEL-2
MDA-N = test system: MDA-N
OVCAR-8 = test system: OVCAR-8
EKVX = test system: EKVX
HT-29 = test system: HT-29
CAKI-1 = test system: CAKI-1

Structure (SMILES) | GI50 (SK-OV-3) | GI50 (HOP-92) | GI50 (PC-3) | GI50 (OVCAR-5) | GI50 (NCI-H23) | GI50 (HCT-116) | GI50 (DU-145) | GI50 (TK-10) | GI50 (SK-MEL-5) | GI50 (SF-539) | GI50 (T47D) | GI50 (CCRF-CEM) | GI50 (HL-60) | GI50 (SK-MEL-28) | GI50 (SK-MEL-2) | GI50 (MDA-N) | GI50 (OVCAR-8) | GI50 (EKVX) | GI50 (HT-29) | GI50 (CAKI-1)
C=CCc1[nH]c2c(OCc3ccccc3)cc(N(CC=C)C(C)=O)cc2c1C | 16.4 µM (inactive) | 12.7 µM (inactive) | 6.76 µM (inactive) | 14.1 µM (inactive) | 13.9 µM (inactive) | 12.3 µM (inactive) | 14.1 µM (inactive) | 16.4 µM (inactive) | 11.8 µM (inactive) | 16.3 µM (inactive) | 3.79 µM (inactive) | 22.3 µM (inactive) | 12.8 µM (inactive) | 16.9 µM (inactive) | 12.4 µM (inactive) | 14.4 µM (inactive) | 13.2 µM (inactive) | 8.45 µM (inactive) | 8.04 µM (inactive) | 15.5 µM (inactive)
CCOC(=O)C1=NN(c2ccccc2)C(=O)/C1=C\NC(=S)C(N)=S | 75.7 µM (inactive) | 39.1 µM (inactive) | 47.5 µM (inactive) | 38.6 µM (inactive) | 87.1 µM (inactive) | 20.5 µM (inactive) | 50.9 µM (inactive) | 36.2 µM (inactive) | 19.6 µM (inactive) | 23.2 µM (inactive) | 13.1 µM (inactive) | 34.1 µM (inactive) | 38.9 µM (inactive) | 39.8 µM (inactive) | 43.1 µM (inactive) | 32.8 µM (inactive) | 45.5 µM (inactive) | 27.2 µM (inactive) | 41.8 µM (inactive) | 38.1 µM (inactive)
O=C(N/N=C/c1ccc([N+](=O)[O-])cc1)Nc1ccc(Br)cc1 | 68.2 µM (inactive) | > 100 µM (inactive) | > 100 µM (inactive) | > 100 µM (inactive) | 47.2 µM (inactive) | 45.8 µM (inactive) | 47.9 µM (inactive) | > 100 µM (inactive) | 51.6 µM (inactive) | > 100 µM (inactive) | 36.1 µM (inactive) | 23.4 µM (inactive) | 40.5 µM (inactive) | > 100 µM (inactive) | > 100 µM (inactive) | 44.6 µM (inactive) | 40.9 µM (inactive) | 99.1 µM (inactive) | 97.1 µM (inactive) | 83.6 µM (inactive)
COC(=O)C1Cc2cccc(C)c2C1 (stereo not given) | > 100 µM (inactive) | > 100 µM (inactive) | > 100 µM (inactive) | > 100 µM (inactive) | > 100 µM (inactive) | > 100 µM (inactive) | > 100 µM (inactive) | > 100 µM (inactive) | > 100 µM (inactive) | > 100 µM (inactive) | > 100 µM (inactive) | 66.5 µM (inactive) | 65.5 µM (inactive) | > 100 µM (inactive) | > 100 µM (inactive) | > 100 µM (inactive) | > 100 µM (inactive) | > 100 µM (inactive) | > 100 µM (inactive) | > 100 µM (inactive)
COc1cc2c(cc1OC)C1=CCC(c3ccccc3)[N+]1(C)CC2 (stereo not given) | > 100 µM (inactive) | > 100 µM (inactive) | > 100 µM (inactive) | > 100 µM (inactive) | > 100 µM (inactive) | > 100 µM (inactive) | > 100 µM (inactive) | > 100 µM (inactive) | 78.5 µM (inactive) | > 100 µM (inactive) | > 100 µM (inactive) | > 100 µM (inactive) | > 100 µM (inactive) | > 100 µM (inactive) | > 100 µM (inactive) | > 100 µM (inactive) | > 100 µM (inactive) | > 100 µM (inactive) | > 100 µM (inactive) | > 100 µM (inactive)
CCOP(=O)(OCC)[C@H]1OC(C)(C)O[C@@H]1CO | > 100 µM (inactive) | > 100 µM (inactive) | > 100 µM (inactive) | > 100 µM (inactive) | > 100 µM (inactive) | > 100 µM (inactive) | > 100 µM (inactive) | > 100 µM (inactive) | > 100 µM (inactive) | > 100 µM (inactive) | > 100 µM (inactive) | > 100 µM (inactive) | > 100 µM (inactive) | > 100 µM (inactive) | > 100 µM (inactive) | > 100 µM (inactive) | > 100 µM (inactive) | > 100 µM (inactive) | > 100 µM (inactive) | > 100 µM (inactive)
CCCC(=O)OCC1OC(n2cc(F)c(=O)[nH]c2=O)CC1O (stereo not given) | > 4.14 µM (inactive) | 1.1 µM (active) | 0.746 µM (active) | > 8.11 µM (inactive) | 0.127 µM (active) | 0.614 µM (active) | 0.255 µM (active) | 1.26 µM (inactive) | 0.221 µM (active) | 0.00432 µM (active) | 6.44 µM (inactive) | 0.0356 µM (active) | 0.614 µM (active) | > 6.78 µM (inactive) | > 9.64 µM (inactive) | 1.45 µM (inactive) | 0.118 µM (active) | > 10 µM (inactive) | 0.721 µM (active) | 0.0402 µM (active)
N#CC1=C(N)OC2=C(CSc3ccccc32)C1c1ccc(Br)cc1 (stereo not given) | 13.4 µM (inactive) | 6.78 µM (inactive) | 4.42 µM (inactive) | 11.6 µM (inactive) | 9.75 µM (inactive) | 2.96 µM (inactive) | 20 µM (inactive) | 13.6 µM (inactive) | 11.6 µM (inactive) | 3.52 µM (inactive) | 4.04 µM (inactive) | 2.72 µM (inactive) | 2.59 µM (inactive) | 12.9 µM (inactive) | 5.7 µM (inactive) | 3.32 µM (inactive) | 2.75 µM (inactive) | 2.81 µM (inactive) | 4.59 µM (inactive) | 4.49 µM (inactive)
O=[N+]([O-])C(=C(Sc1ccccc1)Sc1ccccc1)C(Cl)=C(Cl)Cl | 10.1 µM (inactive) | 1.29 µM (inactive) | 2.26 µM (inactive) | 0.486 µM (active) | 1.24 µM (inactive) | 0.0597 µM (active) | 1.11 µM (active) | 0.0948 µM (active) | 1.69 µM (inactive) | 2.13 µM (inactive) | 0.278 µM (active) | 0.0189 µM (active) | 0.141 µM (active) | 0.427 µM (active) | 2.26 µM (inactive) | 0.23 µM (active) | 0.23 µM (active) | 2.05 µM (inactive) | 0.123 µM (active) | 0.476 µM (active)
O=C(O)C(Cc1ccc(O)c([N+](=O)[O-])c1)N1C(=O)c2ccccc2C1=O (stereo not given) | > 100 µM (inactive) | > 100 µM (inactive) | > 100 µM (inactive) | > 100 µM (inactive) | > 100 µM (inactive) | > 100 µM (inactive) | > 100 µM (inactive) | > 100 µM (inactive) | > 100 µM (inactive) | > 100 µM (inactive) | > 100 µM (inactive) | > 100 µM (inactive) | 18.6 µM (inactive) | > 100 µM (inactive) | > 100 µM (inactive) | > 100 µM (inactive) | > 100 µM (inactive) | > 100 µM (inactive) | > 100 µM (inactive) | > 100 µM (inactive)
C=CCN(C(C)=O)c1cc(OCc2ccccc2)c2c(c1)c(C)cn2S(=O)(=O)c1ccccc1 | 16.1 µM (inactive) | 5.96 µM (inactive) | 4.21 µM (inactive) | 11.8 µM (inactive) | 7.8 µM (inactive) | 3.85 µM (inactive) | 9.75 µM (inactive) | 39.6 µM (inactive) | 4.37 µM (inactive) | 11.5 µM (inactive) | 3.26 µM (inactive) | 4.11 µM (inactive) | 4.89 µM (inactive) | 21.2 µM (inactive) | 3.11 µM (inactive) | 4.66 µM (inactive) | 5.57 µM (inactive) | 8.85 µM (inactive) | 5.55 µM (inactive) | 6.59 µM (inactive)
Cc1cc(C)c2c(n1)S(=O)(=O)N(CCCN1CCN(c3cccc(Cl)c3)CC1)C(C(=O)c1ccccc1)=C2O | 33.7 µM (inactive) | 25.8 µM (inactive) | 30.8 µM (inactive) | 45 µM (inactive) | 28.4 µM (inactive) | 24.2 µM (inactive) | 36.7 µM (inactive) | 27 µM (inactive) | 21.6 µM (inactive) | 40.6 µM (inactive) | 38.8 µM (inactive) | 25.9 µM (inactive) | 31.6 µM (inactive) | 44.4 µM (inactive) | 32.4 µM (inactive) | 25.9 µM (inactive) | 36.6 µM (inactive) | 26 µM (inactive) | 30.8 µM (inactive) | 12.9 µM (inactive)
C=C(C)C1CC=C(C)C2(C1)OCC(C)(C)C(C)O2 (stereo not given) | 23.4 µM (inactive) | 11.2 µM (inactive) | 30.1 µM (inactive) | 19.3 µM (inactive) | 20.7 µM (inactive) | 16.3 µM (inactive) | 31 µM (inactive) | 47.4 µM (inactive) | 15.2 µM (inactive) | 22.2 µM (inactive) | 18.4 µM (inactive) | 24.7 µM (inactive) | 15 µM (inactive) | 24 µM (inactive) | 17.8 µM (inactive) | 21 µM (inactive) | 16.5 µM (inactive) | 24.7 µM (inactive) | 15.5 µM (inactive) | 16.3 µM (inactive)
C/C=C/[C@H]1O[C@@](O)([C@@H](C)[C@H](O)[C@H](C)[C@H]2OC(=O)/C(OC)=C/C(C)=C/[C@@H](C)[C@@H](O)[C@@H](CC)[C@@H](O)[C@H](C)C/C(C)=C/C=C/[C@@H]2OC)C[C@H](OC2CC(O)C(O)C(C)O2)[C@@H]1C (stereo not given in full) | 8.04 µM (inactive) | 0.19 µM (active) | < 0.0075 µM (active) | 3.49 µM (inactive) | 0.406 µM (active) | < 0.0075 µM (active) | 0.256 µM (active) | 9.48 µM (inactive) | < 0.0075 µM (active) | < 0.0075 µM (active) | < 0.0075 µM (active) | < 0.0075 µM (active) | < 0.0075 µM (active) | 0.114 µM (active) | < 0.0075 µM (active) | < 0.0075 µM (active) | < 0.0075 µM (active) | < 0.0075 µM (active) | < 0.0075 µM (active) | < 0.0075 µM (active)
